Patent US7417156B2, “Orally active, antimalarial, anticancer, artemisinin-derived trioxane dimers” (Johns Hopkins University, priority 2002, dated 2008)

Key:
[1] = tested on: CAKI-1; experiment: NCI 60 cell line panel screen (SRB); assay type: cell-based, human; settings: for Log10LC50 / Log10TGI50: CAKI-1 (Renal Cancer); for Log10LC50: LC50: PG=−50; for Log10TGI50: TGI: PG=0; for Log10GI50: Renal Cancer, CAKI-1
[2] = tested on: SNB-19; experiment: NCI 60 cell line panel screen (SRB); assay type: cell-based, human; settings: for Log10GI50: CNS Cancer, SNB-19; for Log10LC50 / Log10TGI50: SNB-19 (CNS Cancer); for Log10LC50: LC50: PG=−50; for Log10TGI50: TGI: PG=0
[3] = tested on: SK-MEL-2; experiment: NCI 60 cell line panel screen (SRB); assay type: cell-based, human; settings: for Log10LC50: SK-MEL2 (Melanoma), LC50: PG=−50; for Log10TGI50: SK-MEL-2 (Melanoma), TGI: PG=0
[4] = tested on: OVCAR-3; experiment: NCI 60 cell line panel screen (SRB); assay type: cell-based, human; settings: for Log10LC50 / Log10TGI50: OVCAR-3 (Ovarian Cancer); for Log10LC50: LC50: PG=−50; for Log10TGI50: TGI: PG=0; for Log10GI50: Ovarian Cancer, OVCAR-3
[5] = tested on: OVCAR-8; experiment: NCI 60 cell line panel screen (SRB); assay type: cell-based, human; settings: for Log10LC50 / Log10TGI50: OVCAR-8 (Ovarian Cancer); for Log10LC50: LC50: PG=−50; for Log10TGI50: TGI: PG=0; for Log10GI50: Ovarian Cancer, OVCAR-8
[6] = tested on: MALME-3M; experiment: NCI 60 cell line panel screen (SRB); assay type: cell-based, human; settings: for Log10LC50 / Log10TGI50: MALME-3M (Melanoma); for Log10LC50: LC50: PG=−50; for Log10TGI50: TGI: PG=0; for Log10GI50: Melanoma, MALME-3M
[7] = tested on: SF-539; experiment: NCI 60 cell line panel screen (SRB); assay type: cell-based, human; settings: for Log10GI50: CNS Cancer, SF-539; for Log10LC50 / Log10TGI50: SF-539 (CNS Cancer); for Log10LC50: LC50: PG=−50; for Log10TGI50: TGI: PG=0
[8] = tested on: SK-OV-3; experiment: NCI 60 cell line panel screen (SRB); assay type: cell-based, human; settings: for Log10GI50: Ovarian Cancer, SK-OV-3; for Log10LC50 / Log10TGI50: SK-OV-3 (Ovarian Cancer); for Log10LC50: LC50: PG=−50; for Log10TGI50: TGI: PG=0
[9] = tested on: PC-3; experiment: NCI 60 cell line panel screen (SRB); assay type: cell-based, human; settings: for Log10LC50 / Log10TGI50: PC-3 (Prostate Cancer); for Log10LC50: LC50: PG=−50; for Log10TGI50: TGI: PG=0; for Log10GI50: Prostate Cancer, PC-3
[10] = tested on: RXF 393; experiment: NCI 60 cell line panel screen (SRB); assay type: cell-based, human; settings: for Log10LC50 / Log10TGI50: RXF 393 (Renal Cancer); for Log10LC50: LC50: PG=−50; for Log10TGI50: TGI: PG=0; for Log10GI50: Renal Cancer, RXF 393
[11] = tested on: HOP-62; experiment: NCI 60 cell line panel screen (SRB); assay type: cell-based, human; settings: for Log10LC50 / Log10TGI50: HOP-62 (Non-Small Cell Lung Cancer); for Log10LC50: LC50: PG=−50; for Log10TGI50: TGI: PG=0; for Log10GI50: Non-Small Cell Lung Cancer, HOP-62
[12] = tested on: SNB-75; experiment: NCI 60 cell line panel screen (SRB); assay type: cell-based, human; settings: for Log10LC50 / Log10TGI50: SNB-75 (CNS Cancer); for Log10LC50: LC50: PG=−50; for Log10TGI50: TGI: PG=0
[13] = tested on: chloroquine-sensitive P. falciparum (NF54); experiment: Antimalarial activity in vitro, [3H]hypoxanthine incorporation; assay type: cell-based; settings: Table I; NF54 strain; read-out: IC50
[14] = tested on: 60 cell line panel; assay type: cell-based; settings: for Log10LC50 Delta / Log10LC50 Range / Log10TGI50 Delta / Log10TGI50 Range: 60 cell line panel; for growth inhibition in words: colon cancer KM12, ovarian cancer OVCAR 3, breast cancer MDA-MB-435; for Log10GI50 MG MID: mean over panel; for Log10LC50 MG MID / Log10TGI50 MG MID: mean value over the 60 cell line panel
[15] = tested on: NCI-H460; experiment: NCI 60 cell line panel screen (SRB); assay type: cell-based, human; settings: for Log10LC50 / Log10TGI50: NCI-H460 (Non-Small Cell Lung Cancer); for Log10LC50: LC50: PG=−50; for Log10TGI50: TGI: PG=0; for Log10GI50: Non-Small Cell Lung Cancer, NCI-H460
[16] = tested on: MDA-MB-435; experiment: NCI 60 cell line panel screen (SRB); assay type: cell-based, human; settings: for Log10LC50 / Log10TGI50: MDA-MB-435 (Breast Cancer); for Log10LC50: LC50: PG=−50; for Log10TGI50: TGI: PG=0
[17] = tested on: K-562; experiment: NCI 60 cell line panel screen (SRB); assay type: cell-based, human; settings: for Log10LC50 / Log10TGI50: K-562 (Leukemia); for Log10LC50: LC50: PG=−50; for Log10TGI50: TGI: PG=0; for Log10GI50: Leukemia, K-562
[18] = tested on: HCT-116; experiment: NCI 60 cell line panel screen (SRB); assay type: cell-based, human; settings: for Log10GI50: Colon Cancer, HCT-116; for Log10LC50 / Log10TGI50: HCT-116 (Colon Cancer); for Log10LC50: LC50: PG=−50; for Log10TGI50: TGI: PG=0

Compound `CC1CCC2C(C)C(CC(COC(=O)CCC(=O)O)CC3OC4OC5(C)CCC6C(C)CCC(C3C)C46OO5)OC3OC4(C)CCC1C32OO4` (stereo not shown) [Compound 8a, bis-trioxane primary succinate monoester] has a Log10LC50 [1] of over −4.30 log10M, a Log10TGI50 [1] of over −5.99 log10M and a Log10GI50 [1] of −6.84. For the same compound, the Log10GI50 [2] was −5.62, the Log10LC50 [2] was over −4.30 log10M and the Log10TGI50 [2] was over −4.30 log10M. The Log10GI50 ([3]; Melanoma, SK-MEL-2) was −5.12, the Log10LC50 [3] was over −4.30 log10M and the Log10TGI50 [3] was over −4.30 log10M. It also gave a Log10LC50 [4] of over −4.30 log10M, a Log10TGI50 [4] of −8.21 log10M and a Log10GI50 [4] of under −8.30. The Log10LC50 [5] was over −4.30 log10M, the Log10TGI50 [5] was over −4.30 log10M and the Log10GI50 [5] was over −4.30. It also gave a Log10LC50 [6] of over −4.30 log10M, a Log10TGI50 [6] of −6.82 log10M and a Log10GI50 [6] of under −8.30. It also gave a Log10GI50 [7] of −5.27, a Log10LC50 [7] of over −4.30 log10M and a Log10TGI50 [7] of over −4.30 log10M. For the same compound, the Log10GI50 [8] was −4.89, the Log10LC50 [8] was over −4.30 log10M and the Log10TGI50 [8] was over −4.30 log10M. For the same compound, the Log10LC50 [9] was over −4.30 log10M, the Log10TGI50 [9] was over −4.30 log10M and the Log10GI50 [9] was under −8.30. For the same compound, the Log10LC50 [10] was over −4.30 log10M, the Log10TGI50 [10] was −6.77 log10M and the Log10GI50 [10] was under −8.30. The Log10LC50 [11] was over −4.30 log10M, the Log10TGI50 [11] was over −4.30 log10M and the Log10GI50 [11] was −6.34. For the same compound, the Log10GI50 ([12]; CNS Cancer, SNB-75) was −6.47, the Log10LC50 [12] was over −4.30 log10M and the Log10TGI50 [12] was over −4.30 log10M. For the same compound, the IC50 [13] was 2 nM, the “Log10GI50 Delta” value [14] was 1.29 and the “Log10GI50 Range” value [14] was 4.00. For the same compound, the “Log10LC50 Delta” value [14] was 0.46, the “Log10LC50 Range” value [14] was 0.48 and the “Log10TGI50 Delta” value [14] was 3.26. The “Log10TGI50 Range” value [14] was 4.00, the “growth inhibition in words” value [14] was “selectively and strong inhibitory” and the “Log10GI50 MG MID” value [14] was −7.01. For the same compound, the “Log10LC50 MG MID” value [14] was −4.32 log10M, the “Log10TGI50 MG MID” value [14] was −5.04 log10M and the Log10LC50 [15] was over −4.30 log10M. The Log10TGI50 [15] was over −4.30 log10M, the Log10GI50 [15] was under −8.30 and the Log10LC50 [16] was over −4.30 log10M. It also gave a Log10TGI50 [16] of over −4.30 log10M, a Log10LC50 [17] of over −4.30 log10M and a Log10TGI50 [17] of over −4.30 log10M. For the same compound, the Log10GI50 [17] was under −8.30, the Log10GI50 [18] was under −8.30 and the Log10LC50 [18] was over −4.30 log10M. The Log10TGI50 [18] was over −4.30 log10M.
Compound `CC1CCC2C(C)C(CC(O)(CC3OC4OC5(C)CCC6C(C)CCC(C3C)C46OO5)CS(=O)(=O)c3ccc(C(=O)O)cc3)OC3OC4(C)CCC1C32OO4` (stereo not drawn) [Compound 10c, bis-trioxane β-hydroxysulfone benzoic acid] has a Log10LC50 [1] of −4.93 log10M, a Log10TGI50 [1] of −6.71 log10M and a Log10GI50 [1] of under −8.30. The Log10GI50 [2] was −6.72, the Log10LC50 [2] was −4.44 log10M and the Log10TGI50 [2] was −4.96 log10M. It also gave a Log10LC50 [3] of over −4.30 log10M, a Log10TGI50 [3] of over −4.30 log10M and a Log10LC50 [4] of −5.01 log10M. The Log10TGI50 [4] was under −8.30 log10M, the Log10GI50 [4] was under −8.30 and the Log10LC50 [5] was over −4.30 log10M. The Log10TGI50 [5] was −4.48 log10M, the Log10GI50 [5] was −5.25 and the Log10LC50 [6] was −4.80 log10M. It also gave a Log10TGI50 [6] of under −8.30 log10M, a Log10GI50 [6] of under −8.30 and a Log10GI50 [7] of −5.19. The Log10LC50 [7] was over −4.30 log10M, the Log10TGI50 [7] was −4.66 log10M and the Log10GI50 [8] was −6.82. It also gave a Log10LC50 [8] of −4.47 log10M, a Log10TGI50 [8] of −4.92 log10M and a Log10LC50 [9] of −4.62 log10M. The Log10TGI50 [9] was −5.23 log10M, the Log10GI50 [9] was under −8.30 and the Log10LC50 [10] was −4.73 log10M. It also gave a Log10TGI50 [10] of −5.99 log10M, a Log10GI50 [10] of under −8.30 and a Log10LC50 [11] of −4.62 log10M. For the same compound, the Log10TGI50 [11] was −5.01 log10M, the Log10GI50 [11] was under −8.30 and the Log10LC50 [12] was −4.32 log10M. For the same compound, the Log10TGI50 [12] was −4.80 log10M, the IC50 [13] was 2.4 nM and the “Log10GI50 Delta” value [14] was −0.73. For the same compound, the “Log10GI50 Range” value [14] was 3.48, the “Log10LC50 Delta” value [14] was 1.00 and the “Log10LC50 Range” value [14] was 1.25. The “Log10TGI50 Delta” value [14] was 2.79, the “Log10TGI50 Range” value [14] was 4.00 and the “growth inhibition in words” value [14] was “selectively and strong inhibitory”. The “Log10GI50 MG MID” value [14] was −7.57, the “Log10LC50 MG MID” value [14] was −4.55 log10M and the “Log10TGI50 MG MID” value [14] was −5.51 log10M. For the same compound, the Log10LC50 [15] was −4.62 log10M, the Log10TGI50 [15] was −5.11 log10M and the Log10GI50 [15] was under −8.30. For the same compound, the Log10GI50 ([16]; Breast Cancer, MDA-MB-435) was under −8.30, the Log10LC50 [16] was −4.60 log10M and the Log10TGI50 [16] was −5.17 log10M. For the same compound, the Log10LC50 [17] was over −4.30 log10M, the Log10TGI50 [17] was −4.75 log10M and the Log10GI50 [17] was under −8.30. It also gave a Log10GI50 [18] of under −8.30, a Log10LC50 [18] of −4.72 log10M and a Log10TGI50 [18] of −5.16 log10M.
